Laboratory results taken from patent US10780090B2, “Heteroaryl compounds useful as inhibitors of SUMO activating enzyme” (Millennium Pharmaceuticals, Inc., priority 2014, dated 2020).

Target: recombinant human SAE enzyme (Homo sapiens (Human), UniProt Q9UBT2)
Assay: SAE HTRF enzyme assay
Format: biochemical
Outline: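 Enzyme reaction: 50 mM HEPES pH 7.5, 5 mM MgCl2, 250 μM GSH, 0.05% BSA, 0.5 μM ATP, 0.01 μM Ubc9-GST, 0.125 μM Sumo-Flag, 0.11 nM SAE; 105 min, 24° C. Stop/detect, 2 h, then HTRF. % inh or IC50.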

[1] = SAE inhibition at compound concentration 0.111 μM
[2] = SAE inhibition, class symbols, legend in nM

recombinant human SAE enzyme, sequence (Q9UBT2 whole entry): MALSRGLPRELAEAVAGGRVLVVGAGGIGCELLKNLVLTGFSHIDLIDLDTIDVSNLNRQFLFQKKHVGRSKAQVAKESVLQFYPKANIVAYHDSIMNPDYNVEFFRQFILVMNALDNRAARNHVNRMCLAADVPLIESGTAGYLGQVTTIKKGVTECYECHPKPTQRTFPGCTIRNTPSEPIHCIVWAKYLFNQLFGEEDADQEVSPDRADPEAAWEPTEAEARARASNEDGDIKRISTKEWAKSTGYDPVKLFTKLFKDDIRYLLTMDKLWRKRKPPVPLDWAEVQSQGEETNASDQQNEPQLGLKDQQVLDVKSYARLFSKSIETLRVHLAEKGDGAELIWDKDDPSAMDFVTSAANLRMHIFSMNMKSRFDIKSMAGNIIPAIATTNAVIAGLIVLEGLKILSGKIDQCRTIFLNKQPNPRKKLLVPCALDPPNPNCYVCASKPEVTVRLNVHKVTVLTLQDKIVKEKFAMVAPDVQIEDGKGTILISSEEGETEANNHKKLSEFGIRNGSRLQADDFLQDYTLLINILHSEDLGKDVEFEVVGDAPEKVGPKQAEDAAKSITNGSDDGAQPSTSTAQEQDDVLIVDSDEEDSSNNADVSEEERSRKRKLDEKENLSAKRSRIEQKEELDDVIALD
recombinant human SAE enzyme, sequence (Q9UBE0 whole entry partner): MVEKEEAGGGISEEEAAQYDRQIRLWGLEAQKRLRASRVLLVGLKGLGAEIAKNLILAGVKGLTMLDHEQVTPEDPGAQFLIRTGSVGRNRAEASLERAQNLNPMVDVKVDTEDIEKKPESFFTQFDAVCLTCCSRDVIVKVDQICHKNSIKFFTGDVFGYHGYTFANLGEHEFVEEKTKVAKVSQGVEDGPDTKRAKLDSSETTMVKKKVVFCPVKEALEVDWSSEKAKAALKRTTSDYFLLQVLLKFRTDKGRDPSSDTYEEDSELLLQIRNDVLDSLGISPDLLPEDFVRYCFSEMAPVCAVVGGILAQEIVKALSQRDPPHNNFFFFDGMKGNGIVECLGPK

Structure (SMILES) | Percent Inhibition [1] | IC50 [2] | Percent Inhibition (Concentration 0.111 μM) | IC50 (class symbols A/B/C) | inhibition at 0.111 µM (Concentration 0.111 μM, read-out: Percent Inhibition)
NS(=O)(=O)OC[C@H]1C[C@@H](Nc2ncncc2C(=O)c2cc([C@H]3OCCc4c(Cl)cccc43)cs2)C[C@@H]1O (mixture of isomers) [I-301, [(1R,2S,4R)-4-{[5-({4-[(1R)-5-chloro-3,4-dihydro-1H-isochromen-1-yl]-2-thienyl}carbonyl)pyrimidin-4-yl]amino}-2-hydroxycyclopentyl]methyl sulfamate and [(1R,2S,4R)-4-{[5-({4-[(1S)-5-chloro-3,4-dihydro-1H-isochromen-1-yl]-2-thienyl}carbonyl)pyrimidin-4-yl]amino}-2-hydroxycyclopentyl]methyl sulfamate] | 99% | < 10 nM | – | – | –
C[C@@H](c1cccc(Cl)c1)c1csc(C(=O)c2cncnc2N[C@@H]2C[C@H](COS(N)(=O)=O)[C@@H](O)C2)c1 (mixture of isomers) [I-117, [(1R,2S,4R)-4-{[5-({4-[(1S)-1-(3-chlorophenyl)ethyl]-2-thienyl}carbonyl)pyrimidin-4-yl]amino}-2-hydroxycyclopentyl]methyl sulfamate and [(1R,2S,4R)-4-{[5-({4-[(1R)-1-(3-chlorophenyl)ethyl]-2-thienyl}carbonyl)pyrimidin-4-yl]amino}-2-hydroxycyclopentyl]methyl sulfamate] | – | – | 93 | < 10 nM | –
NS(=O)(=O)OCC1CC(Nc2ncncc2C(=O)c2cc(C3(c4cccc(Cl)c4)CCCCO3)cs2)CC1O (mixture of isomers) [I-154, [(1R,2S,4R)-4-{[5-({4-[(2R)-2-(3-chlorophenyl)tetrahydro-2H-pyran-2-yl]-2-thienyl}carbonyl)pyrimidin-4-yl]amino}-2-hydroxycyclopentyl]methyl sulfamate and [(1R,2S,4R)-4-{[5-({4-[(2S)-2-(3-chlorophenyl)tetrahydro-2H-pyran-2-yl]-2-thienyl}carbonyl)pyrimidin-4-yl]amino}-2-hydroxycyclopentyl]methyl sulfamate] | – | – | 95 | < 10 nM | –
C[C@@H]1CCCN(Cc2csc(C(=O)c3cncnc3N[C@@H]3C[C@H](COS(N)(=O)=O)[C@@H](O)C3)c2)C1 (mixture of isomers) [I-225, [(1R,2S,4R)-2-hydroxy-4-({5-[(4-{[(3R)-3-methylpiperidin-1-yl]methyl}-2-thienyl)carbonyl]pyrimidin-4-yl}amino)cyclopentyl]methyl sulfamate and [(1R,2S,4R)-2-hydroxy-4-({5-[(4-{[(3S)-3-methylpiperidin-1-yl]methyl}-2-thienyl)carbonyl]pyrimidin-4-yl}amino)cyclopentyl]methyl sulfamate] | – | – | 33 | 100 to 1000 nM | –
NS(=O)(=O)OC[C@H]1C[C@@H](Nc2ncncc2C(=O)c2cc(C3NCCc4ccc(Cl)cc43)c(Cl)s2)C[C@@H]1O (single isomer, unassigned) [I-255b, [(1R,2S,4R)-4-{[5-({5-chloro-4-[(1R)-7-chloro-1,2,3,4-tetrahydroisoquinolin-1-yl]-2-thienyl}carbonyl)pyrimidin-4-yl]amino}-2-hydroxycyclopentyl]methyl sulfamate or [(1R,2S,4R)-4-{[5-({5-chloro-4-[(1S)-7-chloro-1,2,3,4-tetrahydroisoquinolin-1-yl-2-thienyl}carbonyl)pyrimidin-4-yl]amino}-2-hydroxycyclopentyl]methyl sulfamate] | – | – | 100 | < 10 nM | –
NS(=O)(=O)OC[C@H]1C[C@@H](Nc2ncncc2C(=O)c2cc(CO)c(Cl)s2)C[C@@H]1O [I-211, {(1R,2S,4R)-4-[(5-{[5-Chloro-4-(hydroxymethyl)-2-thienyl]carbonyl}pyrimidin-4-yl)amino]-2-hydroxycyclopentyl}methyl sulfamate] | – | – | – | 100 to 1000 nM | 39%
NS(=O)(=O)OC[C@H]1C[C@@H](Nc2ncncc2C(=O)c2cc([C@@H]3OCC(F)(F)c4ccccc43)cs2)C[C@@H]1O (mixture of isomers) [I-293, [(1R,2S,4R)-4-{[5-({4-[(1R)-4,4-difluoro-3,4-dihydro-1H-isochromen-1-yl]-2-thienyl}carbonyl)pyrimidin-4-yl]amino}-2-hydroxycyclopentyl]methyl sulfamate and [(1R,2S,4R)-4-{[5-({4-[(1S)-4,4-difluoro-3,4-dihydro-1H-isochromen-1-yl]-2-thienyl}carbonyl)pyrimidin-4-yl]amino}-2-hydroxycyclopentyl]methyl sulfamate] | 98% | < 10 nM | – | – | –
NS(=O)(=O)OC[C@H]1C[C@@H](Nc2ncncc2C(=O)c2cc([C@H](O)c3cc(Br)ccc3F)cs2)C[C@@H]1O (single isomer, unassigned) [I-19b, [(1R,2S,4R)-4-{[5-({4-[(R)-(5-bromo-2-fluorophenyl)(hydroxy)methyl]-2-thienyl}carbonyl)pyrimidin-4-yl]amino}-2-hydroxycyclopentyl]methyl sulfamate or [(1R,2S,4R)-4-{[5-({4-[(S)-(5-bromo-2-fluorophenyl)(hydroxy)methyl]-2-thienyl}carbonyl)pyrimidin-4-yl]amino}-2-hydroxycyclopentyl]methyl sulfamate] | – | – | 99 | < 10 nM | –
CN1CCc2ccc(Cl)cc2[C@H]1c1csc(C(=O)c2cncnc2N[C@@H]2C[C@H](COS(N)(=O)=O)[C@@H](O)C2)c1 (mixture of isomers) [I-307, [(1R,2S,4R)-4-{[5-({4-[(1R)-7-chloro-2-methyl-1,2,3,4-tetrahydroisoquinolin-1-yl]-2-thienyl}carbonyl)pyrimidin-4-yl]amino}-2-hydroxycyclopentyl]methyl sulfamate and [(1R,2S,4R)-4-{[5-({4-[(1S)-7-chloro-2-methyl-1,2,3,4-tetrahydroisoquinolin-1-yl]-2-thienyl}carbonyl)pyrimidin-4-yl]amino}-2-hydroxycyclopentyl]methyl sulfamate] | 95% | < 10 nM | – | – | –
C=C(C)[C@H](O)c1cc(C(=O)c2cncnc2N[C@@H]2C[C@H](COS(N)(=O)=O)[C@@H](O)C2)sc1Cl (mixture of isomers) [I-141, [(1R,2S,4R)-4-{[5-({5-chloro-4-[(1S)-1-hydroxy-2-methylprop-2-en-1-yl]-2-thienyl}carbonyl)pyrimidin-4-yl]amino}-2-hydroxycyclopentyl]methyl sulfamate and [(1R,2S,4R)-4-{[5-({5-chloro-4-[(1R)-1-hydroxy-2-methylprop-2-en-1-yl]-2-thienyl}carbonyl)pyrimidin-4-yl]amino}-2-hydroxycyclopentyl]methyl sulfamate] | – | – | 95 | < 10 nM | –
NS(=O)(=O)OC[C@H]1C[C@@H](Nc2ncncc2C(=O)c2cc([C@H](O)c3ccccc3)c(Cl)s2)C[C@@H]1O (mixture of isomers) [I-56, [(1R,2S,4R)-4-{[5-({5-chloro-4-[(R)-hydroxy(phenyl)methyl]-2-thienyl}carbonyl)pyrimidin-4-yl]amino}-2-hydroxycyclopentyl]methyl sulfamate and [(1R,2S,4R)-4-{[5-({5-chloro-4-[(S)-hydroxy(phenyl)methyl]-2-thienyl}carbonyl)pyrimidin-4-yl]amino}-2-hydroxycyclopentyl]methyl sulfamate] | – | – | 98 | < 10 nM | –
